Experimental data published in US20260308185A1, “STAT DEGRADERS AND USES THEREOF” (Recludix Pharma, Inc., priority 2023, published 2026).

How the values were obtained:
[1] = test system: pSTAT6 (pY641-STAT6) in PBMC; test: MSD-pSTAT-PBMC Assay (pSTAT6); assay type: cell-based; conditions: compound 3 hrs, then 1 ng/mL IL-4 for 10 min
Description: Cryopreserved Peripheral Blood Mononuclear Cells (PBMC) are from AllCells. Recombinant Human […] and IL-6 are from Peprotech. Mouse monoclonal anti-STAT3 antibody, rabbit monoclonal anti-pY705-STAT3 antibody, rabbit monoclonal Anti-pY641-STAT6 antibody, and lysis buffer are from Cell Signaling Technology (CST). Mouse monoclonal anti-STAT6 antibody is from BioLegend. Assay plates, blocker, and anti-rabbit secondary antibody are from Meso Scale Discovery (MSD).
Cryopreserved PBMCs were thawed out and allowed to recover overnight in IMDM+10% heat-inactivated FBS prior to plating 50,000 (STAT3) or 25,000 (STAT6) cells per well in 96-well U-bottom tissue culture plates. Cells were treated with compound for 3 hrs, then stimulated with 10 ng/mL IL-6 (STAT3) or 1 ng/mL IL-4 (STAT6) for 10 min. Cells were then spun down and washed with ice-cold PBS prior to lysing the cell pellet with 1× lysis buffer (CST) with 1× HALT protease and phosphatase inhibitor cocktail (Thermo). Lysates were transferred to and incubated overnight at 4° C. with shaking in QuickPlex 96-well high bind assay plates (MSD) pre-coated overnight with 30 μL per well of 0.6 μg/mL mouse monoclonal anti-STAT3 antibody (STAT3) or 2 μg/mL mouse monoclonal anti-STAT6 antibody (STAT6) in 1×PBS, and pre-blocked for 1 hour with 3% Blocker-A (MSD). Captured protein in the assay plates were then washed and probed with 25 μL per well of 0.25 μg/ml rabbit monoclonal anti-pY705-STAT3 antibody (STAT3) or 0.18 μg/ml rabbit monoclonal Anti-pY641-STAT6 antibody (STAT6) in 1% Blocker-A for 1 hour at room temperature with shaking, then washed and probed with 25 ul per well of 1 ug/ml Sulfo-TAG Labeled Goat Anti-Rabbit Antibody (MSD) in 1% Blocker-A for 1 hour at room temperature with shaking. Assay plates were then washed and 150 μL of 1× Read Buffer-T (MSD) was added to each well prior to reading on an SQ120 MSD Plate Reader. Assay signal from each sample was subtracted by the signal from unstimulated control wells and normalized to DMSO control wells, IC50 values were calculated using Graph Pad Prism Dose-Response Nonlinear Regression with variable slope. For both pSTAT3 and pSTAT6 A=≤100 nM; B=>100-1000 nM; C=>1000-3000 nM; and D=>3 μM.

[2] = molecular target: T1, Recombinant STAT6 protein (STAT6(W123-T658)) (Homo sapiens, UniProt P42226); test: STAT6 Fluorescence Polarization (FP) Assay; assay type: binding; conditions: 250 nM STAT6(W123-T658), 2 nM 5-FAM-Ap[…]-NH2 probe, pH 7.4, 45-minute incubation at room temperature
T1 construct: Recombinant STAT6 protein (STAT6(W123-T658))
T1 sequence (P42226 123-658): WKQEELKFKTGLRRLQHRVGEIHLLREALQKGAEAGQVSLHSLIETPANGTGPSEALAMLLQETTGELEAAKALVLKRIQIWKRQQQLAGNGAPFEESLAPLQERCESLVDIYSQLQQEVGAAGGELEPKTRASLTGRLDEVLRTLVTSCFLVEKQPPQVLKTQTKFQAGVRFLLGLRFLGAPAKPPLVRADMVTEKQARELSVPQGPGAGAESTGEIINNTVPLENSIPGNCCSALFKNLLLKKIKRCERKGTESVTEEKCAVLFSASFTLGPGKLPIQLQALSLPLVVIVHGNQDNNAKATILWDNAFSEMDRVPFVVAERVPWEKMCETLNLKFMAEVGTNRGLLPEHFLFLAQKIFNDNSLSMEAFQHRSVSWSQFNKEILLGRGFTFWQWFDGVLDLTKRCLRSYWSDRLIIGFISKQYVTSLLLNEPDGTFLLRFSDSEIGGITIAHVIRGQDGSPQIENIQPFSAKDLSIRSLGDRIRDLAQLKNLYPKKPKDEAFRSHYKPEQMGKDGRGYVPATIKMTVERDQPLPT
Description: An FP assay was developed to determine IC50 values for test substances. Recombinant STAT6 protein (STAT6(W123-T658)) at 250 nM was combined with a fluorescently labeled, phosphotyrosine peptide probe (5-FAM-Ap[…]-NH2) at 2 nM in FP buffer (10 mM HEPES pH 7.4, 50 mM NaCl, 1 mM EDTA, 0.05% Tween 20, 2 mM DTT). 50 μL of STAT6-probe mixture was added to serial diluted compounds in black, 96-well plates (Greiner BioOne 655076) to a final concentration of 1% DMSO. Reaction components were mixed, and FP w as measured after 45-minute incubation at room temperature using a Tecan Spark multimode plate reader. FP signal (mP) was plotted against the log concentration of the test substances and IC50 values were calculated by nonlinear regression analysis using GraphPad Prism software. For STAT6 FP assay. A=≤300 nM; B=>300-3000 nM; C=>3-30 μM; and D=>30 μM.

[3] = molecular target: T2, Recombinant STAT3 protein (STAT3(G127-I722)) (Homo sapiens, UniProt P40763); test: STAT3 Fluorescence Polarization (FP) Assay; assay type: binding; conditions: 25 nM STAT3(G127-I722), 2 nM 5-FAM-GpYLPQTV-NH2 probe, pH 7.4, 45-minute incubation at room temperature
T2 construct: Recombinant STAT3 protein (STAT3(G127-I722))
Description: An FP assay was developed to determine IC50 values for test substances. Recombinant STAT3 protein (STAT3(G127-I722)) at 25 nM was combined with a fluorescently labeled, phosphotyrosine peptide probe (5-FAM-GpYLPQTV-NH2) at 2 nM in FP buffer (10 mM HEPES pH 7.4, 50 mM NaCl. 1 mM EDTA, 0.05% Tween 20, 2 mM DTT). 50 μL of STAT3-probe mixture was added to serial diluted compounds in black, 96-well plates (Greiner BioOne 655076) to a final concentration of 1% DMSO. Reaction components were mixed, and FP was measured after 45-minute incubation at room temperature using a Tecan Spark multimode plate reader. FP signal (mP) was plotted against the log concentration of the test substances and IC50 values were calculated by nonlinear regression analysis using GraphPad Prism software. For STAT3 FP assay, A=≤100 nM; B=>100-1000 nM; C=>1-10 μM; and D=>10 μM.

T2 sequence (P40763 127-722): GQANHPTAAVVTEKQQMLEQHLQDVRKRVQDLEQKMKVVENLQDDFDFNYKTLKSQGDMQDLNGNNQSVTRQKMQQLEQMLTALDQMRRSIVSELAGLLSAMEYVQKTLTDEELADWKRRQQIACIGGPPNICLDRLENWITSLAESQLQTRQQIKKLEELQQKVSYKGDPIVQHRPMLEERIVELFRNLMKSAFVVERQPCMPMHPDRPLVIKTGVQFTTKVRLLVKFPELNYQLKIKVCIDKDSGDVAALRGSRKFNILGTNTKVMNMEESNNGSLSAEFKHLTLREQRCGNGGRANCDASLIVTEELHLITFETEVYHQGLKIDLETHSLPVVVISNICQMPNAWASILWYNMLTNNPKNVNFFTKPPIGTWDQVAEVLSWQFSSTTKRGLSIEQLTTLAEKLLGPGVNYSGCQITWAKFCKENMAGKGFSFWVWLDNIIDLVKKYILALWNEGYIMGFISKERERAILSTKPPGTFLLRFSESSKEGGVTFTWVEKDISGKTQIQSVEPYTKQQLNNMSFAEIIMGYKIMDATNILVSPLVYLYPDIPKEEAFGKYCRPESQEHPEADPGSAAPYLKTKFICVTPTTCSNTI

IC50 [2] | IC50 [3] | SMILES | IC50 [1]
0.3 to 3 µM | 0.1 to 1 µM | O=C1CCC(N2Cc3c(C#CCCCCCCn4ccc([C@@H]5CN(C(=O)[C@@H]6CC[C@@H]7C[C@H]8C[C@H]8C[C@H](NC(=O)c8cc9cc(C(F)(F)P(=O)(O)O)ccc9s8)C(=O)N76)C6(CC6)C5)cc4=O)cccc3C2=O)C(=O)N1 (stereo partly drawn) [Compound 5, ((2-(((3S,6S,7aS,8aR,9aR)-3-((6R)-6-(1-(8-(2-(2,6-dioxopiperidin-3-yl)-1-oxoisoindolin-4-yl)oct-7-yn-1-yl)-2-oxo-1,2-dihydropyridin-4-yl)-4-azaspiro[2.4]heptane-4-carbonyl)-5-oxodecahydro-1H-cyclopropa[d]pyrrolo[1,2-a]azocin-6-yl)carbamoyl)benzo[b]thiophen-5-yl)difluoromethyl)phosphonic acid] | 0.1 to 1 µM
0.3 to 3 µM | 0.1 to 1 µM | N#CC1CN(C(=O)C2CCC3CC4CC4CC(NC(=O)c4cc5cc(C(F)(F)P(=O)(O)O)ccc5s4)C(=O)N32)CC1c1cccc(OCCCCCC#Cc2cccc3c2CN(C2CCC(=O)NC2=O)C3=O)c1 [Compound 7, ((2-(((3S,6S,7aS,8aR,9aR)-3-((rel-3S,4R)-3-cyano-4-(3-((7-(2-(2,6-dioxopiperidin-3-yl)-1-oxoisoindolin-4-yl)hept-6-yn-1-yl)oxy)phenyl)pyrrolidine-1-carbonyl)-5-oxodecahydro-1H-cyclopropa[d]pyrrolo[1,2-a]azocin-6-yl)carbamoyl)benzo[b]thiophen-5-yl)difluoromethyl)phosphonic acid] | > 3 µM
< 0.3 µM | 0.1 to 1 µM | O=C1CCC(c2ccc(OCCCCCn3ccc([C@@H]4CN(C(=O)[C@@H]5CC[C@@H]6C[C@H]7C[C@H]7C[C@H](NC(=O)c7cc8cc(C(F)(F)P(=O)(O)O)ccc8s7)C(=O)N65)C5(CC5)C4)cc3=O)cc2)C(=O)N1 (stereo partly drawn) [Compound 10, ((2-(((3S,6S,7aS,8aR,9aR)-3-((6R)-6-(1-(5-(4-(2,6-dioxopiperidin-3-yl)phenoxy)pentyl)-2-oxo-1,2-dihydropyridin-4-yl)-4-azaspiro[2.4]heptane-4-carbonyl)-5-oxodecahydro-1H-cyclopropa[d]pyrrolo[1,2-a]azocin-6-yl)carbamoyl)benzo[b]thiophen-5-yl)difluoromethyl)phosphonic acid] | 1 to 3 µM
< 0.3 µM | 0.1 to 1 µM | N#CC1CN(C(=O)C2CCC3CC4CC4CC(NC(=O)c4cc5cc(C(F)(F)P(=O)(O)O)ccc5s4)C(=O)N32)CC1c1cccc(N2CCN(c3ccc4c(c3)[nH]c(=O)n4C3CCC(=O)NC3=O)CC2)c1 [Compound 13, ((2-(((3S,6S,7aS,8aR,9aR)-3-((rel-3S,4R)-3-cyano-4-(3-(4-(1-(2,6-dioxopiperidin-3-yl)-2-oxo-2,3-dihydro-1H-benzo[d]imidazol-5-yl)piperazin-1-yl)phenyl)pyrrolidine-1-carbonyl)-5-oxodecahydro-1H-cyclopropa[d]pyrrolo[1,2-a]azocin-6-yl)carbamoyl)benzo[b]thiophen-5-yl)difluoromethyl)phosphonic acid] | 0.1 to 1 µM

SMILES | IC50 [2] | IC50 [3] | IC50 [1]
N#CC1CN(C(=O)C2CCC3CC4CC4CC(NC(=O)c4cc5cc(C(F)(F)P(=O)(O)O)ccc5s4)C(=O)N32)CC1c1cccc(OCCCCOc2ccc(C3CCC(=O)NC3=O)cc2)c1 [Compound 3, ((2-(((3S,6S,7aS,8aR,9aR)-3-((rel-3S,4R)-3-cyano-4-(3-(4-(4-(2,6-dioxopiperidin-3-yl)phenoxy)butoxy)phenyl)pyrrolidine-1-carbonyl)-5-oxodecahydro-1H-cyclopropa[d]pyrrolo[1,2-a]azocin-6-yl)carbamoyl)benzo[b]thiophen-5-yl)difluoromethyl)phosphonic acid] | 0.3 to 3 µM | 1 to 10 µM | > 3 µM
